The test system of the data set is rodent carcinogenicity bioassays, tumor incidence. Put plainly: CCRIS carcinogenicity studies. The source says:
The CCRIS database contains chemical records with carcinogenicity, mutagenicity, tumor promotion, and tumor inhibition test results. It was developed by the National Cancer Institute (NCI). Data are derived from studies cited in primary journals, current awareness tools, NCI reports, and other sources. Test results have been reviewed by experts in carcinogenesis and mutagenesis.
CCRIS provides historical information from the years 1985 - 2011. It is no longer updated.
This is an archive assay for CCRIS carcinogenicity studies.

Here are results for 2 compounds from PubChem BioAssay AID1259411 (Chemical Carcinogenesis Research Information System (CCRIS), 2018).

The source made the active and inactive calls. No rule for the calls is given here.

On to `CCCCCN(C)N=O`, for which the carcinogen call runs as follows: (Species: HAMSTER, Strain/Sex: SYRIAN/FEMALE, Route: GAVAGE, Dose: 0, 5.6 MG/KG 1/WK FOR 23-30 WK (TOTAL DOSE: 0; 1.1 MMOL) (STUDY DURATION: LIFETIME), Dose: 0, 5.6 MG/KG 1/WK FOR 23-30 WK (TOTAL DOSE: 0; 1.1 MMOL) (STUDY DURATION: LIFETIME), Tumor Site: Type of Lesion: LUNG: ALVEOLAR/BRONCHIAL ADENOMA, NASAL MUCOSA: CARCINOMA, ADENOMA, FORESTOMACH: SQUAMOUS CELL CARCINOMA, SQUAMOUS CELL, Tumor Site: Type of Lesion: LUNG: ALVEOLAR/BRONCHIAL ADENOMA, NASAL MUCOSA: CARCINOMA, ADENOMA, FORESTOMACH: SQUAMOUS CELL CARCINOMA, SQUAMOUS CELL) “active; positive”; (Species: HAMSTER, Strain/Sex: SYRIAN/MALE,FEMALE, Route: INTRAPERITONEAL, Dose: 0, 3, 6 MG/KG ONCE ON DAYS 1 AND 3 OF AGE, RESPECTIVELY (STUDY DURATION: >75 WK), Dose: 0, 3, 6 MG/KG ONCE ON DAYS 1 AND 3 OF AGE, RESPECTIVELY (STUDY DURATION: >75 WK)) “inactive; negative”; (Species: HAMSTER, Strain/Sex: SYRIAN/MALE,FEMALE, Route: INTRAPERITONEAL, Dose: 0, 3 MG/KG ONCE TO NEWBORN ANIMALS (STUDY DURATION: LIFETIME)) “inactive; negative”; (Species: HAMSTER, Strain/Sex: SYRIAN/MALE,FEMALE, Route: INTRAPERITONEAL, Dose: 0, 6 MG/KG ONCE TO 3 D-OLD ANIMALS (STUDY DURATION: LIFETIME)) “inactive; negative”; (Species: HAMSTER, Strain/Sex: SYRIAN/MALE,FEMALE, Route: INTRAPERITONEAL, Dose: 0, 70-100 MG/KG ONCE TO ADULT ANIMALS (STUDY DURATION: LIFETIME), Tumor Site: Type of Lesion: ESOPHAGUS: PAPILLOMA OR CARCINOMA) “active; positive”; (Species: HAMSTER, Strain/Sex: SYRIAN/MALE,FEMALE, Route: INTRAPERITONEAL, Dose: 0, 70 MG/KG (3 MALE HAMSTERS), 100 MG/KG (11 FEMALE HAMSTERS) ONCE AT 46-49 DAYS OF AGE (STUDY DURATION: >43 WK), Dose: 0, 70 MG/KG (3 MALE HAMSTERS), 100 MG/KG (11 FEMALE HAMSTERS) ONCE AT 46-49 DAYS OF AGE (STUDY DURATION: >43 WK)) “inactive; negative”. For the same compound, the carcinogen call (Species: HAMSTER, Strain/Sex: SYRIAN/MALE,FEMALE, Route: INTRAPERITONEAL, Dose: 0, 75 MG/KG 1/WK FOR 6 WK BEGINNING AT 38 DAYS OF AGE (STUDY DURATION: >33 WK), Tumor Site: Type of Lesion: FORESTOMACH: PAPILLOMA, LUNG: ADENOMA, NASAL CAVITY: TUMOR, Tumor Site: Type of Lesion: FORESTOMACH: PAPILLOMA, LUNG: ADENOMA, NASAL CAVITY: TUMOR) was “active; positive”; the carcinogen call (Species: HAMSTER, Strain/Sex: SYRIAN/MALE,FEMALE, Route: INTRAPERITONEAL, Dose: 0, 75 MG/KG 1/WK FOR 6 WK TO ADULT ANIMALS (STUDY DURATION: LIFETIME), Tumor Site: Type of Lesion: ESOPHAGUS: PAPILLOMA, FORESTOMACH: PAPILLOMA, LUNG: ADENOMA, NASAL CAVITY: ADENOMA, ADENOCARCINOMA OR SQUAMOUS CARCINOMA, Tumor Site: Type of Lesion: ESOPHAGUS: PAPILLOMA, FORESTOMACH: PAPILLOMA, LUNG: ADENOMA, NASAL CAVITY: ADENOMA, ADENOCARCINOMA OR SQUAMOUS CARCINOMA) is “active; positive”; the carcinogen call (Species: HAMSTER, Strain/Sex: SYRIAN/MALE, Route: GAVAGE, Dose: 0, 5.6 MG/KG 1/WK FOR 23-30 WK (TOTAL DOSE: 0; 1.1 MMOL) (STUDY DURATION: LIFETIME), Dose: 0, 5.6 MG/KG 1/WK FOR 23-30 WK (TOTAL DOSE: 0; 1.1 MMOL) (STUDY DURATION: LIFETIME), Tumor Site: Type of Lesion: LIVER: HEPATOCELLULAR ADENOMA, HEMANGIOSARCOMA, LUNG: ALVEOLAR/BRONCHIAL ADENOMA, NASAL MUCOSA: CARCINOMA, FORESTOMACH:, Tumor Site: Type of Lesion: LIVER: HEPATOCELLULAR ADENOMA, HEMANGIOSARCOMA, LUNG: ALVEOLAR/BRONCHIAL ADENOMA, NASAL MUCOSA: CARCINOMA, FORESTOMACH:) is “active; positive”; the carcinogen call (Species: MOUSE, Strain/Sex: 101/N/MALE, FEMALE, Route: ORAL, Dose: 0, 0.0015% IN DRINKING WATER FOR 8 WK (STUDY DURATION: 24 WK), Tumor Site: Type of Lesion: ESOPHAGUS: TUMOR) was “active; positive”; the carcinogen call (Species: MOUSE, Strain/Sex: BXH-8/MALE, FEMALE, Route: ORAL, Dose: 0, 0.0015% IN DRINKING WATER FOR 8 WK (STUDY DURATION: 24 WK), Tumor Site: Type of Lesion: ESOPHAGUS: TUMOR) is “active; positive”; the carcinogen call (Species: MOUSE, Strain/Sex: C57BL/MALE,FEMALE, Route: ORAL, Dose: 0, 0.0015% IN DRINKING WATER FOR 8 WK (STUDY DURATION: 24 WK), Tumor Site: Type of Lesion: ESOPHAGUS:TUMOR) is “active; positive”. The carcinogen call by setting is: (Species: MOUSE, Strain/Sex: STX/LE/MALE,FEMALE, Route: ORAL, Dose: 0, 0.0015% IN DRINKING WATER FOR 8 WK (STUDY DURATION: 24 WK), Tumor Site: Type of Lesion: ESOPHAGUS: TUMOR) “active; positive”; (Species: MOUSE, Strain/Sex: SWISS/MALE,FEMALE, Route: INTRAPERITONEAL, Dose: 0, 15 MG/KG 1/WK FOR 3 WK BEGINNING AT 38 DAYS OF AGE (STUDY DURATION: >79 WK), Tumor Site: Type of Lesion: ESOPHAGUS: PAPILLOMA, LUNG: ADENOMA) “active; positive”; (Species: MOUSE, Strain/Sex: SWISS/MALE,FEMALE, Route: INTRAPERITONEAL, Dose: 0, 15 MG/KG 1/WK FOR 3 WK TO ADULT ANIMALS (STUDY DURATION: LIFETIME), Tumor Site: Type of Lesion: ESOPHAGUS: PAPILLOMA, LUNG: ADENOMA) “active; positive”; (Species: RAT, Strain/Sex: WISTAR/MALE,FEMALE, Route: INTRAPERITONEAL, Dose: 0, 6, 12.5 MG/KG ONCE AT 1 AND 3 DAYS OF AGE, RESPECTIVELY (STUDY DURATION: >82 WK), Dose: 0, 6, 12.5 MG/KG ONCE AT 1 AND 3 DAYS OF AGE, RESPECTIVELY (STUDY DURATION: >82 WK)) “inactive; negative”; (Species: RAT, Strain/Sex: WISTAR/MALE,FEMALE, Route: INTRAPERITONEAL, Dose: 0, 6 MG/KG ONCE TO NEWBORN ANIMALS (STUDY DURATION: LIFETIME)) “inactive; negative”; (Species: RAT, Strain/Sex: WISTAR/MALE,FEMALE, Route: INTRAPERITONEAL, Dose: 0, 12.5 MG/KG ONCE TO 3 D-OLD ANIMALS (STUDY DURATION: LIFETIME)) “inactive; negative”. The carcinogen call is, setting by setting: (Species: RAT, Strain/Sex: WISTAR/MALE,FEMALE, Route: INTRAPERITONEAL, Dose: 0, 50-70 MG/KG ONCE TO ADULT ANIMALS (STUDY DURATION: LIFETIME), Tumor Site: Type of Lesion: ESOPHAGUS: PAPILLOMA, CARCINOMA) “active; positive”; (Species: RAT, Strain/Sex: WISTAR/MALE,FEMALE, Route: INTRAPERITONEAL, Dose: 0, 50 MG/KG (7 FEMALE RATS), 60 MG/KG (2 FEMALE RATS), 70 MG/KG (10 MALE RATS) ONCE AT 42-50 DAYS OF AGE (STUDY DURATION, Dose: 0, 50 MG/KG (7 FEMALE RATS), 60 MG/KG (2 FEMALE RATS), 70 MG/KG (10 MALE RATS) ONCE AT 42-50 DAYS OF AGE (STUDY DURATION, Tumor Site: Type of Lesion: ESOPHAGUS: CARCINOMA) “active; positive”.
As to `CCN(CC)CCNc1ccc(CO)c2sc3ccccc3c(=O)c12`, the carcinogen call (Species: MOUSE, Route: INTRAMUSCULAR, Tumor Site: Type of Lesion: LIVER) is “active; positive”.
